Data: patent US10253002B2, “Compounds and methods of treating infections” (Neoculi Pty Ltd., priority 2013, dated 2019)

What was measured:
[1] = system: Staphylococcus aureus; details: control strain Staphylococcus aureus ATCC 29213; cited from earlier work
[2] = system: Staphylococcus aureus; assay: Mouse skin wound infection model, topical treatment; format: in vivo, mice; details: 14 treatments
From the text: Preliminary studies prior to the conduct of the current study established a new method of skin infection arising from a detailed study of the models mentioned above. Briefly, study mice are anaesthetised, a patch of dorsal skin is clipped to reveal the skin and a circular area of skin is removed with a hand held punch, leaving a wound on the dorsum with a central cavity. The wound is infected with a known number of the challenge organism. Approximately four to six hours after infection, the wound is either treated topically with a vehicle formulation or an active formulation. The infected skin wound is retreated every 12 hours for a total of 14 treatments. Mice are humanely euthanased, the area of the original infected wound is dissected and removed and its bacterial content quantified by standard microbiologic tests. In this way, the change in bacterial concentration due to treatment with the active formulation can be readily determined by examining the reduction in bacterial burden compared with the vehicle control. Fresh cultures of bacteria (Staphylococcus aureus) were grown on Sheep Blood Agar at 37° C. for 16-18 hours. A few typical colonies were selected and suspended in 10 ml of Tryptic Soy Broth and incubated overnight in a shaking incubator (240 rpm) at 37° C. The overnight suspension was vortexed and diluted (1:100) in fresh Tryptic soy broth (100 μl [0.1 ml] in 9.9 ml broth). The fresh suspension was incubated for 3 hours in a shaking incubator (as above) in order to obtain mid-logarithmic phase bacteria. Bacteria were pelleted through centrifugation at 7,500 rpm for 10 mins. Broth supernatant was removed and bacteria suspended in 10 ml Phosphate Buffered Saline (PBS). These steps were repeated a further two times. The density of the suspension was checked by measuring absorbance at 600 nm, using a spectrophotometer with saline as a blank, to confirm the target density at a reading of approximately 0.100, consistent with a bacterial density of 2.5×10^7 CFU/ml. The suspension was placed into a rack placed into a lockable transport box with an ice brick to maintain refrigeration during transport, followed by storage in cool room upon arrival at the mouse skin infection laboratory. Final suspension was mixed thoroughly before inoculating the skin wounds created in mice. […] Eyes of each anaesthetised mouse were covered with veterinary eye lubricant in order to prevent corneal dehydration. Each mouse removed from induction chamber and placed onto surgical area, in front of individual aesthetic nose cone. While under anaesthesia each mouse was monitored for assessment of depth of anaesthesia (response to pain, blink reflex, skeletal muscle tone) and respiratory and cardiac function. Back skin hair was shaved from surgical area with mechanical clippers. […] Once the iodine solution was dry, a subcutaneous injection of the nonsteroidal anti-inflammatory agent meloxicam was administered. Dorsal skin was pinched gently to allow creation of a circular full-thickness wound using ear punch/biopsy punch. […] Once the bacterial suspension was dry, mice were placed into individual recovery boxes labelled with the mouse number. The time of inoculation was recorded. Initial body weights of each mouse were recorded on the appropriate score sheet. Mice recovered to full consciousness within 5 minutes. Recovered mice were returned to individual housing and monitored hourly for post-surgical or anaesthetic complications. […] Each ointment container was weighted prior to administration and the weight recorded. Each mouse was carefully restrained. […] The weight of the ointment container post-administration was recorded. […] At the end of the 7 day skin wound assessment period, all test mice were euthanased prior to wound collection for post mortem examination. The skin wound was dissected from the dorsum of each mouse. The sample was placed in a sample tube and weighed before 1 ml PBS and sterile tissue homogenisation beads were added. […]

[3] = Visual analysis of solubility in diluents and media, Example 5; format: physicochemical
[4] = system: D39 cell membrane ultra-structure; assay: Transmission electron microscopy morphometric analysis; format: cell-based, Streptococcus pneumoniae
Method: Morphological appearance and morphometric analysis of the cell membrane was determined using transmission electron microscopy (TEM). Bacterial suspensions and 10 mL cultures of […] were prepared as before. […] Critical time points for TEM work were determined by analysing trends in the growth curves produced from the kill kinetics studies. […] Samples were fixed using modified protocols defined by a previous study examining cell wall ultrastructure of S. pneumoniae ([…]. et al. 2005. Infect Immun 73:4653-4667). […] The samples were then embedded in fresh LR White resin and incubated at 50° C. for 48 h. Sections were cut to 1 μm using a glass knife, stained with Toluidene Blue and viewed under a light microcrope at 400× to identify the presence of stained pneumococci. At least four ultra-thin sections were then cut to 90 nm using a diamond knife and placed on matrix grids, one section per grid. […] Stained sections were then placed on grids and viewed between 25000× and 130000× on a Philips CM100 Transmission Electron Microscope. Images were obtained at 130000× magnification and analysed using analySIS [Olympus Soft Imaging Systems].

[5] = system: VRE; assay: Kill kinetics assay, Example 7; format: cell-based, Enterococcus spp.
Method: MRSA/VRE were grown overnight on Columbia SBA at 37° C. A few colonies of bacteria were then suspended in CAMHB and adjusted to an optical density of 0.08 to 0.10. The bacterial suspension was diluted 1:10. […] The tubes were incubated at 37° C. In order to determine the number of viable bacteria present at various time points, a 100 μL aliquot was removed from each tube and diluted in normal saline. Then, 100 μL of each dilution was spread onto colony count agar, in duplicate, and incubated for 48 h at 37° C. After 24 h the numbers of colonies present on each plate were counted and therefore the number of viable bacteria present in the original suspension enumerated. Plates were re-checked after 48 hours.

[6] = system: S. pneumoniae strain D39; assay: Micro-broth dilution time kill studies; format: cell-based, Streptococcus pneumoniae; details: D39 treated with 54 μg/mL NCL812
[7] = Solubility in DMSO and CAMHB, Example 4
From the text: Test antimicrobials were selected on the basis of solubility and antimicrobial activity from preliminary studies.

Row | Compound | Acceptable MIC range for Ampicillin [1] [µg/mL] | mean colony count per g of tissue, log10 ([2]; mice, Formulation B 20 mg/g topically every 12 hours, vehicle 6.77) [log10] | mean colony count per g of tissue ([2]; mice, Formulation B 20 mg/g topically every 12 hours, vehicle 5,888,436) | % reduction (of colony forming units per gram of tissue versus vehicle) ([2]; mouse skin wound infected with Staphylococcus aureus, topical ointment (Formulation B, 20 mg/g) every 12 hours, end of 7 day period, relative to vehicle group) [%] | Log10 (CFU/g): colony forming units per gram of tissue ([2]; mouse skin wound infected with Staphylococcus aureus, topical ointment (Formulation B, 20 mg/g) every 12 hours, wound tissue at end of 7 day period, group mean) | Visual analysis of solubility ([3]; Diluent CAMHB) | Visual analysis of solubility ([3]; Diluent DMSO) | Visual analysis of solubility ([3]; Diluent PBS) | Visual analysis of solubility ([3]; Media 4% LHB:CAMHB) | Visual analysis of solubility ([3]; Media 10% horse serum-supplemented broth) | cell membrane thickness ([4]; D39 exposed to 16 μg/mL NCL812 for 6 h, untreated 4.35±0.24) [nm] | width of periplasmic space ([4]; D39 treated with 16 μg/mL NCL812 for 6 h, untreated 3.91±0.14) [nm] | Periplasmic space, Mean ± SEM ([4]; D39 treated with 16 μg/ml NCL812 for 6 h, n = 11, growth control 3.91 ± 0.14 nm) | Cell membrane, Mean ± SEM ([4]; D39 treated with 16 μg/ml NCL812 for 6 h, n = 13, growth control 4.35 ± 0.24 nm) | reduction in the viable count compared to the control ([5]; at 4 h) [log10] | reduction in the viable count compared to the control ([5]; at 8 h) [log10] | growth of bacteria versus control ([5]; at 24 h) | time at which treated D39 entered a log phase of growth [6] [h] | Solubility CAMHB ([7]; cation-adjusted Mueller-Hinton II broth) | Solubility DMSO ([7]; dimethyl sulfoxide)
1 | CC1(C)S[C@@H]2[C@H](NC(=O)[C@H](N)c3ccccc3)C(=O)N2[C@H]1C(=O)O [Ampicillin] | 0.5 to 2 |  |  |  |  |  |  |  |  |  |  |  |  |  |  |  |  |  |  | 
2 | N=C(N/N=C/c1ccc(Cl)cc1)N/N=C/c1ccc(Cl)cc1 [NCL812, 1,3-bis[(E)-(4-chlorophenyl)methyleneamino]guanidine] |  | 5.15 | 141,254 | 97.6 | 5.15 Log10 (CFU/g) | Turbid | Transparent | Precipitate | Turbid | Precipitate | 6.43±0.29 | 4.54±0.096 | 4.54 ± 0.096 nm, | 6.43 ± 0.29 nm, | ~2 | ~2.5 | no longer as significantly reduced in comparison to the control | 6 | Cloudy precipitates | Good
